From ChEMBL document CHEMBL5543174, “A Nonbactericidal Anionic Antimicrobial Peptide Provides Prophylactic and Therapeutic Efficacies against Bacterial Infections in Mice by Immunomodulatory-Antithrombotic Duality” (J Med Chem, 2024)
Calls of active or inactive are those of the source.

Legend:
[1] = system: Escherichia coli; experiment: Antibacterial activity against Carbapenem-resistant Escherichia coli infected in C57BL/6 mouse assessed as reduction in IL-1beta level in serum at 10 mg/kg,ip pre-administrated 5 hrs before bacterial infection measured after 24 hrs by ELISA; type: functional, organism-based; settings: time 29.0 hrs
[2] = system: Mus musculus; experiment: Anticoagulation activity in mouse infected with Methicillin-resistant Staphylococcus aureus assessed as increase in plasma APC expression at 10 mg/kg,ip pre-administrated 5 hrs before bacterial infection measured after 24 hrs by ELISA; type: functional, organism-based; settings: time 29.0 hrs
[3] = system: Staphylococcus aureus; experiment: Antibacterial activity against Methicillin-resistant Staphylococcus aureus infected in C57BL/6 mouse with clodronate liposome-induced monocyte depletion model assessed as reduction of bacterial burden in peritoneal cavity at 10 mg/kg,ip administrated 5 hrs after bacterial infection measured after 24 hrs; type: functional, organism-based; settings: time 19.0 hrs
[4] = system: Escherichia coli; experiment: Antibacterial activity against Carbapenem-resistant Escherichia coli infected in C57BL/6 mouse with cyclophosphamide-induced neutrophil depletion model assessed as decrease in bacterial burden in peritoneal cavity at 10 mg/kg,ip pre-administrated 5 hrs before bacterial infection measured after 24 hrs; type: functional, organism-based; settings: time 29.0 hrs
[5] = system: Peritoneal macrophage cell; experiment: Induction of chemotaxis in mouse Peritoneal macrophage assessed as increase in macrophage migration at 100 ug/ml preincubated with KN62 for 30 mins followed by compound addition measured after 8 hrs by crystal violet staining based indirect transwell assay; type: functional, cell-based; settings: dose 100.0 µg/ml
[6] = system: Staphylococcus aureus; experiment: Antibacterial activity against Methicillin-resistant Staphylococcus aureus infected in C57BL/6 mouse assessed as reduction in IL-1beta level in serum at 10 mg/kg,ip administrated 5 hrs after bacterial infection measured after 24 hrs by ELISA; type: functional, organism-based; settings: time 19.0 hrs
[7] = system: Escherichia coli; experiment: Antibacterial activity against Carbapenem-resistant Escherichia coli infected in C57BL/6 mouse assessed as reduction in IL-6 level in peritoneal fluid at 10 mg/kg,ip administrated 5 hrs after bacterial infection measured after 24 hrs by ELISA; type: functional, organism-based; settings: time 19.0 hrs
[8] = system: Peritoneal macrophage cell; experiment: Induction of chemotaxis in mouse Peritoneal macrophage assessed as upregulation of CXCL2 expression incubated for 6 hrs by ELISA; type: functional, cell-based
[9] = system: Staphylococcus aureus; experiment: Antibacterial activity against Methicillin-resistant Staphylococcus aureus infected in C57BL/6 mouse assessed as reduction in inflammatory injury in lung at 10 mg/kg,ip pre-administrated 5 hrs before bacterial infection measured after 24 hrs by hematoxylin and eosin staining based analysis; type: functional, organism-based; settings: time 29.0 hrs
[10] = system: Peritoneal macrophage cell; experiment: Induction of chemotaxis in mouse Peritoneal macrophage assessed as increase in macrophage migration at 100 ug/ml preincubated with WRW4 for 30 mins followed by compound addition measured after 8 hrs by crystal violet staining based indirect transwell assay; type: functional, cell-based; settings: dose 100.0 µg/ml
[11] = system: Neutrophil; experiment: Induction of phagocytosis in mouse bone marrow derived neutrophil cultured with CFSE-labeled Carbapenem-resistant Escherichia coli incubated for 1.5 hrs followed by bacterial exposure for 1 hr by flow cytometry; type: functional, cell-based; settings: time 2.5 hrs
[12] = system: Peritoneal macrophage; experiment: Immunomodulatory activity in mouse Peritoneal macrophage assessed as decrease in LPS-induced IL-6 production at 25 to 100 ug/ml incubated for 6 hrs by ELISA; type: functional, cell-based; settings: dose 25-100 µg/ml
[13] = system: Staphylococcus aureus; experiment: Antibacterial activity against Staphylococcus aureus ATCC 25923 infected in C57BL/6 mouse assessed as reduction in IL-1beta level in peritoneal fluid at 10 mg/kg,ip pre-administrated 5 hrs before bacterial infection measured after 24 hrs by ELISA; type: functional, organism-based; settings: time 29.0 hrs
[14] = system: Staphylococcus aureus; experiment: Antimicrobial activity against Staphylococcus aureus ATCC 25923 assessed as reduction in microbial colony forming unit at 200 ug/ml incubated for 1 to 4 hrs by time-kill kinetics based analysis; type: functional, organism-based; settings: dose 200.0 µg/ml, time 1-4 hrs
[15] = system: Neutrophil; experiment: Induction of degranulation in mouse bone marrow derived neutrophil assessed as increase in MMP-9 release at 25 to 100 ug/ml incubated for 6 hrs by ELISA; type: functional, cell-based; settings: dose 25-100 µg/ml
[16] = system: Staphylococcus aureus; experiment: Antibacterial activity against Staphylococcus aureus ATCC 25923 infected in C57BL/6 mouse assessed as reduction in IL-1beta level in serum at 10 mg/kg,ip pre-administrated 5 hrs before bacterial infection measured after 24 hrs by ELISA; type: functional, organism-based; settings: time 29.0 hrs
[17] = system: Staphylococcus epidermidis; experiment: Antimicrobial activity against Staphylococcus epidermidis ATCC 12228 assessed as inhibition of microbial growth at <= 200 ug/ml incubated for 18 hrs by micro-broth dilution method; type: functional, organism-based; settings: dose <= 200.0 µg/ml
[18] = system: Escherichia coli; experiment: Antibacterial activity against Escherichia coli ATCC 25922 infected in C57BL/6 mouse assessed as reduction in IL-6 level in peritoneal fluid at 10 mg/kg,ip administrated 5 hrs after bacterial infection measured after 24 hrs by ELISA; type: functional, organism-based; settings: time 19.0 hrs
[19] = system: Staphylococcus aureus; experiment: Antibacterial activity against Methicillin-resistant Staphylococcus aureus infected in C57BL/6 mouse assessed as reduction in bacterial load at 10 mg/kg,ip pre-administrated 5 hrs before bacterial infection; type: functional, organism-based
[20] = system: Escherichia coli; experiment: Antibacterial activity against Carbapenem-resistant Escherichia coli infected in C57BL/6 mouse assessed as reduction in IL-1beta level in peritoneal fluid at 10 mg/kg,ip pre-administrated 5 hrs before bacterial infection measured after 24 hrs by ELISA; type: functional, organism-based; settings: time 29.0 hrs
[21] = system: Escherichia coli; experiment: Antibacterial activity against Carbapenem-resistant Escherichia coli infected in C57BL/6 mouse assessed as reduction in bacterial load at 10 mg/kg,ip administrated 5 hrs after bacterial infection; type: functional, organism-based
[22] = system: Staphylococcus aureus; experiment: Antibacterial activity against Staphylococcus aureus ATCC 25923 infected in C57BL/6 mouse assessed as reduction in inflammatory injury in lung at 10 mg/kg,ip pre-administrated 5 hrs before bacterial infection measured after 24 hrs by hematoxylin and eosin staining based analysis; type: functional, organism-based; settings: time 29.0 hrs
[23] = system: Mus musculus; experiment: Antithrombotic activity in carrageenan-induced tail thrombosis BALB/c mouse model assessed as reduction in thrombus length at 10 mg/kg,ip administration measured for 6 to 48 hrs; type: functional, organism-based; settings: time 6-48 hrs
[24] = system: Staphylococcus aureus; experiment: Antibacterial activity against Methicillin-resistant Staphylococcus aureus infected in C57BL/6 mouse assessed as reduction in inflammatory injury in lung at 10 mg/kg,ip administrated 5 hrs after bacterial infection measured after 24 hrs by hematoxylin and eosin staining based analysis; type: functional, organism-based; settings: time 19.0 hrs
[25] = system: Escherichia coli; experiment: Antibacterial activity against Escherichia coli ATCC 25922 infected in C57BL/6 mouse assessed as reduction in IL-1beta level in peritoneal fluid at 10 mg/kg,ip pre-administrated 5 hrs before bacterial infection measured after 24 hrs by ELISA; type: functional, organism-based; settings: time 29.0 hrs
[26] = system: Staphylococcus aureus; experiment: Antibacterial activity against Staphylococcus aureus ATCC 25923 infected in C57BL/6 mouse assessed as reduction in IL-6 level in peritoneal fluid at 10 mg/kg,ip administrated 5 hrs after bacterial infection measured after 24 hrs by ELISA; type: functional, organism-based; settings: time 19.0 hrs
[27] = system: Escherichia coli; experiment: Antibacterial activity against Escherichia coli ATCC 25922 infected in C57BL/6 mouse assessed as increase in survival rate at 10 mg/kg,ip administrated 5 hrs after bacterial infection measured after 7 days; type: functional, organism-based; settings: time 7.0 day
[28] = system: Serum; experiment: Immunomodulatory activity in mouse serum assessed as change on C3a level at 25 to 200 ug/ml incubated for 1 hr by ELISA based complement assay; type: functional, cell-free; settings: dose 25-200 µg/ml
[29] = system: Escherichia coli; experiment: Antibacterial activity against Carbapenem-resistant Escherichia coli infected in C57BL/6 mouse assessed as reduction in TNF-alpha level in peritoneal fluid at 10 mg/kg,ip administrated 5 hrs after bacterial infection measured after 24 hrs by ELISA; type: functional, organism-based; settings: time 19.0 hrs
[30] = system: Staphylococcus aureus; experiment: Antimicrobial activity against Staphylococcus aureus ATCC 25923 assessed as reduction in metabolic activity at < 200 ug/ml incubated for 1 to 4 hrs by CCK-8 assay; type: functional, organism-based; settings: dose < 200.0 µg/ml, time 1-4 hrs

Measured: Activity

CC[C@H](C)[C@H](NC(=O)[C@@H]1CSSC[C@H](NC(=O)[C@H](CCC(=O)O)NC(=O)[C@@H](NC(=O)[C@H](CCCCN)NC(=O)[C@H](Cc2c[nH]cn2)NC(=O)[C@@H](NC(=O)[C@H](CCCCN)NC(=O)[C@H](CCC(=O)O)NC(=O)[C@H](C)NC(=O)[C@H](CCC(=O)O)NC(=O)[C@H](CCC(=O)O)NC(=O)[C@H](CCC(=O)O)NC(=O)[C@H](C)N)[C@@H](C)O)[C@@H](C)O)C(=O)N[C@@H](CC(C)C)C(=O)N[C@@H](CCC(=O)O)C(=O)N1)C(=O)N[C@@H](Cc1ccccc1)C(=O)N[C@H](C(=O)N[C@@H](CC(C)C)C(=O)N[C@@H](CC(C)C)C(=O)N1CCC[C@H]1C(=O)N1CCC[C@@H]1C(=O)N[C@H](C)C(=O)O)[C@@H](C)O
active: [1] | [2] | [5] | [6] | [7] | [8] Dose-Dependent Effect | [9] | [10] | [11] Dose-Dependent Effect | [13] | [16] | [18] | [19] | [20] | [21] | [22] | [23] | [24] | [25] | [26] | [27] | [29]
inactive: [3] | [4] | [12] | [14] | [15] | [17] | [28] | [30]
